Reference: patent publication US8604042B2, “Bi-aryl meta-pyrimidine inhibitors of kinases” (TargeGen, Inc., priority 2005, dated 2013)
pIC50: −log10 of the molar value. Structures can show the parent of a compound that is named as a salt.

Biological target: T1, recombinant JAK2 (Homo sapiens, UniProt O60674)
T1 construct: purchased Upstate Cell Signaling Solutions
Assay: IC50 value determinations for Jak2 kinase, luminescence-based kinase assay (Kinase-Glo)
Format: biochemical
Conditions: Table 1

T1 sequence (O60674 808-1132 limits assumed): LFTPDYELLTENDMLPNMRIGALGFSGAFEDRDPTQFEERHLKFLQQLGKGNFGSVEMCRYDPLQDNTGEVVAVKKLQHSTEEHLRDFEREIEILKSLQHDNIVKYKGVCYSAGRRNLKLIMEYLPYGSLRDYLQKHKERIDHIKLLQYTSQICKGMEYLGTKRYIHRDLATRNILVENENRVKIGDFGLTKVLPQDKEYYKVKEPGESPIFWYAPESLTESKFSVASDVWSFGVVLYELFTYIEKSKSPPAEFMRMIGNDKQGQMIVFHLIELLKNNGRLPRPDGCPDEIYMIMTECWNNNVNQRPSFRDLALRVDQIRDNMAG

Row | Structure (SMILES) | pIC50
1 | CC(=O)Nc1cccc(Nc2nc(Nc3ccc(OC4CCNCC4)cc3)ncc2C)c1 [N-(3-{5-Methyl-2-[4-(piperidin-4-yloxy)-phenylamino]-pyrimidin-4-ylamino}-phenyl)-acetamide] | 6.86
2 | Cc1cnc(Nc2ccc(N3CCN(C)CC3)cc2)nc1Nc1cccc(C)c1C [5-methyl-N4-(2,3-dimethylphenyl)-N2-(4-(4-methylpiperazin-1-yl)phenyl)pyrimidine-2,4-diamine Hydrochloride] | 7.80
3 | Cc1cnc(Nc2ccc(OC3CCNCC3)cc2)nc1Nc1cccc(C(C)(C)C)c1 [N4-(3-tert-butylphenyl)-5-methyl-N2-(4-(piperidin-4-yloxy)phenyl)pyrimidine-2,4-diamine Hydrochloride] | 8.56
4 | COc1cc(Nc2nc(Nc3ccc(OCCN4CCCC4)cc3)ncc2C#N)c(Cl)cc1Cl [drawing 298, 4-(2,4-Dichloro-5-methoxy-phenylamino)-2-[4-(2-pyrrolidin-1-yl-ethoxy)-phenylamino]-pyrimidine-5-carbonitrile] | 5.20
5 | Cc1cnc(Nc2ccc(CN3CCOCC3)cc2)nc1Nc1cccc2[nH]ccc12 [N4-(1H-Indol-4-yl)-5-methyl-N2-(4-morpholin-4-ylmethyl-phenyl)-pyrimidine-2,4-diamine] | 8.13
6 | Cc1cnc(Nc2ccc(N3CCN(C)CC3)cc2)nc1Nc1cccc(C2CCN(CCO)CC2)c1 [2-[4-(3-{5-Methyl-2-[4-(4-methyl-piperazin-1-yl)-phenylamino]-pyrimidin-4-ylamino}-phenyl)-piperidin-1-yl]-ethanol] | 8.07
7 | Cc1cnc(Nc2ccc(N3CCN(C)CC3)cc2)nc1Nc1cccc(N2CCCCC2)c1 [5-methyl-N2-(4-(4-methylpiperazin-1-yl)phenyl)-N4-(3-(piperidin-1-yl)phenyl)pyrimidine-2,4-diamine] | 7.33
8 | CNS(=O)(=O)c1cc(Nc2nc(Nc3ccc(OCCN4CCCC4)cc3)ncc2C)ccc1C [2,N-Dimethyl-5-{5-methyl-2-[4-(2-pyrrolidin-1-yl-ethoxy)-phenylamino]-pyrimidin-4-ylamino}-benzenesulfonamide] | 6.90
9 | Cc1cnc(Nc2ccc(OCCN3CCCC3)cc2)nc1Nc1ccc2sccc2c1 [N4-Benzo[b]thiophen-5-yl-5-methyl-N2-[4-(2-pyrrolidin-1-yl-ethoxy)-phenyl]-pyrimidine-2,4-diamine] | 7.55
10 | COc1cc(Nc2nc(Nc3ccc(OCCN4CCCC4)cc3)ncc2C)ccc1Cl [drawing 311, N4-(4-Chloro-3-methoxy-phenyl)-5-methyl-N2-[4-(2-pyrrolidin-1-yl-ethoxy)-phenyl]-pyrimidine-2,4-diamine] | 8.10
11 | CCN(CC)S(=O)(=O)c1cccc(Nc2nc(Nc3ccc(N4CCN(C)CC4)cc3)ncc2C)c1 [N,N-Diethyl-3-{5-methyl-2-(4-(4-methyl-piperazin-1-yl)-phenylamino]-pyrimidin-4-ylamino}-benzenesulfonamide] | 7.22
12 | COc1cc(Nc2nc(Nc3ccc(N4CCN(C)CC4)cc3)ncc2C)ccc1Cl [N4-(4-Chloro-3-methoxy-phenyl)-5-methyl-N2-[4-(4-methyl-piperazin-1-yl)-phenyl]-pyrimidine-2,4-diamine] | 8.26
13 | Cc1cnc(Nc2ccc(N3CCN(C)CC3)cc2)nc1Nc1cccc(S(=O)(=O)C2CCNCC2)c1 [5-Methyl-N2-[4-(4-methyl-piperazin-1-yl)-phenyl]-N4-[3-(piperidine-4-sulfonyl)-phenyl]-pyrimidine-2,4-diamine] | 6.70
14 | Cc1cnc(Nc2ccc(C3CCNCC3)cc2)nc1Nc1cccc(C(C)(C)C)c1 [N4-(3-tert-butylphenyl)-5-methyl-N2-(4-(piperidin-4-yl)phenyl)pyrimidine-2,4-diamine Hydrochloride] | 7.68
15 | Cc1cnc(Nc2ccc(N3CCN(C)CC3)cc2)nc1Nc1cccc(S(=O)(=O)NC2CCCCC2)c1 [N-Cyclohexyl-3-{5-methyl-2-[4-(4-methyl-piperazin-1-yl)-phenylamino)-pyrimidin-4-ylamino}-benzenesulfonamide] | 7.40
16 | Cc1cnc(Nc2ccc(N3CCN(C)CC3)cc2)nc1Nc1cccc(S(=O)(=O)N2CCCCC2)c1 [5-Methyl-N2-[4-(4-methyl-piperazin-1-yl)-phenyl]-N4-[3-(piperidine-1-sulfony)-phenyl]-pyrimidine-2,4-diamine Hydrochloride] | 7.61
17 | Cc1cnc(Nc2ccc(OCCN3CCCC3)cc2)nc1Nc1cccc(C(F)(F)F)c1 [N2-(4-(2-(pyrrolidin-1-yl)ethoxy)phenyl)-N4-(3-(trifluoromethyl)phenyl)-5-methylpyrimidine-2,4-diamine] | 7.75
18 | Cc1cnc(Nc2ccc(N3CCN(C)CC3)cc2)nc1Nc1cccc(S(=O)(=O)N2CCCC2)c1 [5-Methyl-N2-[4-(4-methyl-piperazin-1-yl)-phenyl]-N4-[3-(pyrrolidine-1-sulfony)-phenyl]-pyrimidine-2,4-diamine Hydrochloride] | 7.77
19 | COc1cc(Nc2nc(Nc3ccc(N4CCCCC4)cc3)ncc2C)ccc1Cl [N4-(4-Chloro-3-methoxy-phenyl)-5-methyl-N2-(4-piperidin-1-yl-phenyl)-pyrimidine-2,4-diamine] | 7.45

Row | Structure (SMILES) | pIC50
20 | Cc1cnc(Nc2ccc(OCCN3CCCC3)cc2)nc1Nc1ccccc1 [5-Methyl-N4-phenyl-N2-[4-(2-pyrrolidin-1-yl-ethoxy)-phenyl]-pyrimidine-2,4-diamine] | 7.78
21 | CC(=O)N1CCN(c2ccc(Nc3ncc(C)c(Nc4cccc(S(=O)(=O)NC(C)(C)C)c4)n3)cc2)CC1 [3-{2-[4-(4-Acetyl-piperazin-1-yl)-phenylamino]-5-methyl-pyrimidin-4-ylamino}-N-tert-butyl-benzenesulfonamide] | 7.73
22 | Cc1cnc(Nc2cccc(S(=O)(=O)N3CCCCC3)c2)nc1Nc1cccc(S(=O)(=O)NC(C)(C)C)c1 [N-tert-Butyl-3-{5-methyl-2-[3-(piperidine-1-sulfonyl)-phenylamino]-pyrimidin-4-ylamino}-benzenesulfonamide] | 6.50
23 | Cc1cnc(Nc2ccc(N3CCN(C)CC3)cc2)nc1Nc1ccc(Cl)c2[nH]ccc12 [drawing 356, N4-(7-chloro-1H-indol-4-yl)-5-methyl-N2-(4-(4-methylpiperazin-1-yl)phenyl)pyrimidine-2,4-diamine] | 8.27
24 | COc1ccc(Nc2ccnc(Nc3ccc(S(=O)(=O)NCCN4CCCC4)cc3)n2)cc1 [4-[4-(4-Methoxy-phenylamino)-pyrimidin-2-ylamino]-N-(2-pyrrolidin-1-yl-ethyl)-benzenesulfonamide trifluoroacetate] | 4.97
25 | COc1cc(Nc2nc(Nc3ccc(CN4CCN(C)CC4)cc3)ncc2C)ccc1Cl [N4-(4-Chloro-3-methoxy-phenyl)-5-methyl-N2-[4-(4-methyl-piperazin-1-ylmethyl)-phenyl]-pyrimidine-2,4-diamine] | 7.92
26 | COC(=O)c1cc(Nc2ncc(C)c(Nc3cccc4c3OCO4)n2)ccc1OCCN1CCCC1 [5-[4-(Benzo[1,3]dioxol-4-ylamino)-5-methyl-pyrimidin-2-ylamino]-2-(2-pyrrolidin-1-yl-ethoxy)-benzoic acid methyl ester] | 7.79
27 | CCOC(=O)c1cccc(Nc2nc(Nc3ccc(N4CCN(C)CC4)cc3)ncc2C)c1C [2-Methyl-3-{5-methyl-2-[4-(4-methyl-piperazin-1-yl)-phenylamino]-pyrimidin-4-ylamino)-benzoic acid ethyl ester] | 7.56
28 | Cc1cnc(Nc2ccc(OCCN3CCCC3)cc2)nc1Nc1ccc(F)c2[nH]ccc12 [N2-(4-(2-(pyrrolidin-1-yl)ethoxy)phenyl)-N4-(7-fluoro-1H-indol-4-yl)-5-methylpyrimidine-2,4-diamine Hydrochloride] | 8.03
29 | Cc1cnc(Nc2cccc(-c3nnn[nH]3)c2)nc1Nc1cccc(S(=O)(=O)NC(C)(C)C)c1 [N-tert-Butyl-3-{5-methyl-2-[3-(1H-tetrazol-5-yl)-phenylamino]-pyrimidin-4-ylamino}-benzenesulfonamide] | 7.25
30 | Cc1cnc(Nc2ccc(N3CCN(C)CC3)cc2)nc1Nc1ccc(C)c2[nH]ccc12 [5-methyl-N4-(7-methyl-1H-indol-4-yl)-N2-(4-(4-methylpiperazin-1-yl)phenyl)pyrimidine-2,4-diamine Hydrochloride] | 8.42
31 | Cc1cnc(Nc2ccc(OCCN3CCCC3)cc2)nc1Nc1cccc(Cl)c1 [N4-(3-Chloro-phenyl)-5-methyl-N2-[4-(2-pyrrolidin-1-yl-ethoxy)-phenyl]-pyrimidine-2,4-diamine] | 7.68
32 | COc1cc(Nc2nc(Nc3ccc(CN4CCNCC4)cc3)ncc2C)ccc1Cl [N4-(4-Chloro-3-methoxy-phenyl)-5-methyl-N2-(4-piperazin-1-ylmethyl-phenyl)-pyrimidine-2,4-diamine] | 7.82
33 | CNC(=O)c1cccc(Nc2nc(Nc3ccc(OCCN4CCCC4)cc3)ncc2C)c1 [N-Methyl-3-{5-methyl-2-[4-(2-pyrrolidin-1-yl-ethoxy)-phenylamino]-pyrimidin-4-ylamino}-benzamide] | 6.59
34 | Cc1ccc(Nc2nc(Nc3ccc(N4CCN(C)CC4)cc3)ncc2C)cc1S(C)(=O)=O [N4-(3-Methanesulfonyl-4-methyl-phenyl)-5-methyl-N2-[4-(4-methyl-piperazin-1-yl)-phenyl]-pyrimidine-2,4-diamine] | 6.80
35 | COc1cc(Nc2nc(Nc3cccc(OCCN4CCCC4)c3)ncc2C)c(Cl)cc1Cl [drawing 300, N4-(2,4-Dichloro-5-methoxy-phenyl)-5-methyl-N2-[3-(2-pyrrolidin-1-yl-ethoxy)-phenyl]-pyrimidine-2,4-diamine] | 5.69
36 | Cc1cnc(Nc2ccc(CN3CCNCC3)cc2)nc1Nc1cccc(S(=O)(=O)NC(C)(C)C)c1 [N-tert-butyl-3-[(5-methyl-2-{[4-(piperazin-1-ylmethyl)phenyl]amino}pyrimidin-4-yl)amino]benzenesulfonamide] | 8.34
37 | Cc1cnc(Nc2ccc(OCCN3CCCC3)cc2)nc1Nc1cccc2c1OCO2 [drawing 333, N4-Benzo[1,3]dioxol-4-yl-5-methyl-N2-[4-(2-pyrrolidin-1-ylethoxy)-phenyl]-pyrimidine-2,4-diamine] | 7.77

Same assay, conditions: Table 6

Row | Structure (SMILES) | pIC50
38 | COc1cc(Nc2nc(Nc3ccc(OCCN4CCCC4)cc3)ncc2C)ccc1Cl [Compound 6] | 8.10

Same assay, conditions: Table 7, SAR for the P3 region

Row | Structure (SMILES) | pIC50
39 | COc1cc(Nc2nc(Nc3ccc(OCCN4CCCC4)cc3)ncc2C)ccc1Cl [Compound 6] | 8.10
